US11020457B2, “Compositions and methods for protecting the kidney from ischemia reperfusion injury” (University of Virginia Patent Foundation, priority 2013, dated 2021)
Entries after “also recorded” stand apart in the source; their conditions may differ.

How the values were obtained:
Type in all cases: in vivo
[1] = system: C57BL/6 mice; experiment: Renal IRI in WT mice: serum iron (ELISA), tissue non-heme iron, liver and serum hepcidin
Description: (§1) All experiments were performed in accordance with the National Institutes of Health and Institutional Animal Care and Use Guidelines. The Animal Care and Use Committee of the University of Virginia approved all procedures and protocols. C57BL/6 mice from the Jackson Laboratory and hepcidin knockout mice (HAMP−/−), a kind gift from Dr Cindy Roy (John Hopkins University) were used in this study. All experiments were performed on 8-10 weeks old male mice. Kidney ischemia-reperfusion surgery was performed as previously reported (44). The core temperature of the mice was maintained between 34° C. and 36° C. using a heating pad. After anesthetizing the mice (ketamine, 12 mg/ml; atropine, 0.48 mg/ml; xylazine, 24 mg/ml; […] mixture administered per 20 g body weight), bilateral flank incisions were made, both renal pedicles were exposed, and cross-clamped for 26 minutes (severe I/R injury) or 24 minutes (mild I/R injury). After the determined ischemia, clamps were removed, and kidneys were allowed to reperfuse for 24 hours. Ambient postoperative air temperature was maintained between 30° C. and 32° C. until mice had fully recovered. Sham-operated animals underwent bilateral flank incisions without clamping of renal pedicles. Twenty-four hours later, mice were euthanized, and tissues were harvested.
Animals were divided into three groups, injected intraperitoneally with water and underwent IRI (IRI), injected intraperitoneally with 50-100 μg hepcidin at different time points prior to IRI (Hepcidin-IRI) or were sham operated (Sham). The experimental design is depicted in FIG. 2a.
(§2) Serum iron (Abcam), hepcidin (Intrinsic Lifescience) and IL-6 levels (eBioscience) were measured using commercial ELISA kits, as per manufacturers instructions.
Non-heme iron content in tissue was measured using the method described in published literature with slight modifications (60). Briefly, tissues were accurately weighed, finely cut and placed for 20 hours at 65° C. in a solution of 3M HCl/0.61 M trichloroacetic acid. After cooling to room temperature, the acid extract was spun at 12,000 rpm to collect the supernatant. 0.1 mL of the supernatant was incubated with chromogen solution (1.86 mM bathophenanthroline sulfonate/143 mM thioglycollic acid) for 20 minutes, and OD was measured at 535 nm. A standard curve was generated using an iron standard solution (Ricca Iron AA standard) against water as the blank. Non-heme iron content (μg/g) was calculated using the equation described (60).
For RNA isolation, frozen tissues were re-suspended in RLT buffer (Qiagen Inc, Valencia, Calif.) and homogenized using TissueLyser system (Qiagen Inc, Valencia, Calif.). Total RNA from tissue homogenate was purified using RNAeasy mini kit (Qiagen Inc, Valencia, Calif.) following manufacturers instructions. 1 μg of RNA was used to synthesize cDNA using the iScript cDNA synthesis kit (Bio-Rad). The cDNA template was mixed with iTAQ SYBR green universal super mix (Bio-Rad) and quantitative PCR was carried out on CFX Connect system (Bio-Rad). Predesigned primers for Caspase-3 and Bcl-2 were purchased from Bio-rad. Glyceraldehyde-3-phosphate dehydrogenase (GAPDH) was amplified in parallel and used as the reference gene in quantification. Data is expressed as the relative gene expression and was calculated using the 2 (−ρρC(T)) method.

[2] = system: C57BL/6 mice; experiment: Renal IRI in WT mice: flow cytometry of kidney immune cells; details: hepcidin vs untreated IRI, p<0.005
Description: as §1, with “Ambient postoperative air temperature was maintained between 30° C. and 32° C. until mice had fully recovered. Sham-operated animals underwent bilateral flank incisions without clamping of renal pedicles. Twenty-four hours later, mice were euthanized, and tissues were harvested.” left out
Single-cell suspensions from the kidney were prepared using standard methods. […] Flow cytometry data were acquired using BD FACSCalibur (BD Biosciences, San Jose, Calif.) with Cytek eight-color flow cytometry upgrade (Cytek Development, Fremont, Calif.) and analyzed with FlowJo software 9.0 (Tree Star Inc., Ashland, Oreg.). […]

[3] = system: C57BL/6 mice; experiment: Renal IRI in WT mice: splenic ferroportin (immunofluorescence) and splenic H-Ferritin (Western blot); details: for splenic H-Ferritin: WT hepcidin IRI vs IRI and vs Sham, p<0.05, FIG. 9b
Description: as §1, with “harvested. […]” for “harvested.”
Snap frozen tissue sections were homogenized in Tris-Triton tissue lysis buffer containing complete protease inhibitor cocktail using a Dounce Homogenizer. […] H-Ferritin was measured in the whole kidney and spleen lysates. […] The primary antibodies were detected with Donkey anti-goat Alexa 800 and goat anti-rabbit Alexa 800 antibodies (LiCor Bioscience). Mouse monoclonal GAPDH and β-Actin (Abcam) were used as the loading controls and detected using Donkey anti Mouse Alexa 680 antibody (LiCor Bioscience). Quantitation of data was performed using densitometry software (Licor Bioscience).

[4] = system: hepcidin knockout mice (HAMP−/−); experiment: Renal IRI in HAMP-/- mice: splenic ferroportin and splenic H-Ferritin; details: for splenic H-Ferritin: HAMP-/- Hepcidin-IRI vs HAMP-/- IRI and vs Sham, p<0.005, FIG. 9c
Description: as §1
Snap frozen tissue sections were homogenized in Tris-Triton tissue lysis buffer containing complete protease inhibitor cocktail using a Dounce Homogenizer. Membrane fractions were isolated from the whole kidney lysate using membrane isolation kit (Thermo Pierce) to determine ferroportin expression. H-Ferritin was measured in the whole kidney and spleen lysates. […] The primary antibodies were detected with Donkey anti-goat Alexa 800 and goat anti-rabbit Alexa 800 antibodies (LiCor Bioscience). Mouse monoclonal GAPDH and β-Actin (Abcam) were used as the loading controls and detected using Donkey anti Mouse Alexa 680 antibody (LiCor Bioscience). Quantitation of data was performed using densitometry software (Licor Bioscience).

[5] = system: C57BL/6 mice; experiment: Renal IRI in WT mice: IL-6 levels by ELISA
Description: as §1, with “Twenty-four hours later, mice were euthanized, and tissues were harvested.” left out
as §2

[6] = system: folic acid induced acute kidney injury; experiment: Folic acid induced acute kidney injury (data not shown)

Substance: Mouse hepcidin 25 (DTNFPICIFCCKCCNNSQCGICCKT; listed as Mus musculus)
- liver hepcidin gene expression ([1]; hepcidin before IRI, IRI Vs. Hepcidin-IRI p<0.005, FIG. 1e): significantly prevented the IRI-induced upregulation of hepcidin
- liver non-heme iron levels ([1]; hepcidin before IRI, vs IRI p<0.0001): effectively prevented IRI-induced depletion of liver non-heme iron
- splenic non-heme iron content ([1]; hepcidin before IRI, vs IRI p<0.001, vs sham p<0.05): significantly higher splenic non-heme iron content than IRI or sham groups
- kidney non-heme iron content ([1]; hepcidin before IRI, vs IRI, p<0.05, FIG. 1b): significantly prevented IRI-induced kidney iron accumulation
- serum iron levels ([1]; hepcidin i.p. before IRI, vs untreated IRI, p<0.001, FIG. 1a): significantly reduced IRI-induced increase in serum iron levels
- serum hepcidin levels ([1]; hepcidin-treated IRI vs sham, FIG. 1f): not significantly different between hepcidin-treated and sham groups
- frequency of kidney CD45+ cells ([2]; FIG. 4b-c): reduced renal inflammatory cell infiltration by almost half
- kidney neutrophils ([2]; FIG. 4c): significantly reduced IRI-induced renal neutrophil inflammation
- splenic H-Ferritin [3]: increased splenic H-Ferritin levels
- splenic H-Ferritin ([3]; listed as hepcidin): significantly higher H-Ferritin compared to both untreated IRI mice and sham controls
- splenic ferroportin expression ([3]; hepcidin treatment, renal IRI, FIG. 9a bottom panel): dramatic decrease in surface expression of ferroportin; also recorded: degradation of ferroportin
- splenic H-Ferritin [4]: increased splenic H-Ferritin levels
- splenic H-Ferritin ([4]; listed as hepcidin): significantly higher H-Ferritin compared to both untreated IRI mice and sham controls
- splenic ferroportin expression ([4]; hepcidin reconstitution in HAMP-/- mice, renal IRI): lower ferroportin expression than sham-operated mice
- serum IL-6 levels ([5]; WT-IRI Vs WT Hepcidin-IRI, p<0.007, FIG. 10a): prevented IRI-induced increase in IL-6 levels; also recorded: prevented by Hepcidin
- splenic, renal, and systemic IL-6 levels ([5]; hepcidin treatment, renal IRI (discussion)): significantly prevented IRI-induced increase in splenic, renal, and systemic IL-6 levels
- protection against folic acid induced acute kidney injury [6]: protective against folic acid induced acute kidney injury
